Assay [1] deals with D2 Receptor (Homo sapiens, UniProt P14416). Description: radioligand binding, [3H]N-methylspiperone. To be noted: @ 10μM (Fig. 1c).
The target in assay [2] is T1, Dopamine receptor D4 (Homo sapiens, UniProt P21917).
T1 sequence (P21917 1-419): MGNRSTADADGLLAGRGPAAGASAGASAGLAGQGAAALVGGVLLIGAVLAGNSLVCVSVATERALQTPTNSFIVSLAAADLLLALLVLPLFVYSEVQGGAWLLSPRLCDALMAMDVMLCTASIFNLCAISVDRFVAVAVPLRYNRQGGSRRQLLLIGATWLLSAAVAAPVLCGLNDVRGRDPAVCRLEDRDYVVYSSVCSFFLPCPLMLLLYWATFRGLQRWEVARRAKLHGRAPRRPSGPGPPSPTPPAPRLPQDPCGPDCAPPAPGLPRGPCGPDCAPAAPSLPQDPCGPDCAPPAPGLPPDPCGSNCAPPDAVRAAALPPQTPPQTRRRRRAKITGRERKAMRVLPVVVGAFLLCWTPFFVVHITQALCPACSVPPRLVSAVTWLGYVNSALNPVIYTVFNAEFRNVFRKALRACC
Format: cell-based. To be noted: Fig. 3A agonist assay.

The target in assay [3] is Dopamine receptor D2 (Homo sapiens, UniProt P14416). It is filed as cell-based. The note with it: Fig. 3A agonist assay.
The target of assay [4] is T2, D4 Receptor (Homo sapiens, UniProt P21917).
T2 sequence (P21917 1-419): T1 sequence (P21917 1-419)
Nature of the assay: radioligand binding, [3H]N-methylspiperone. To be noted: bound stated.

The values that follow come from article PMC3653568 (Nature, 2012).

Molecules are shown by their SMILES. Where only a bound is given, the exact number is not on record here.

Sequence of D2 Receptor (P14416 whole entry): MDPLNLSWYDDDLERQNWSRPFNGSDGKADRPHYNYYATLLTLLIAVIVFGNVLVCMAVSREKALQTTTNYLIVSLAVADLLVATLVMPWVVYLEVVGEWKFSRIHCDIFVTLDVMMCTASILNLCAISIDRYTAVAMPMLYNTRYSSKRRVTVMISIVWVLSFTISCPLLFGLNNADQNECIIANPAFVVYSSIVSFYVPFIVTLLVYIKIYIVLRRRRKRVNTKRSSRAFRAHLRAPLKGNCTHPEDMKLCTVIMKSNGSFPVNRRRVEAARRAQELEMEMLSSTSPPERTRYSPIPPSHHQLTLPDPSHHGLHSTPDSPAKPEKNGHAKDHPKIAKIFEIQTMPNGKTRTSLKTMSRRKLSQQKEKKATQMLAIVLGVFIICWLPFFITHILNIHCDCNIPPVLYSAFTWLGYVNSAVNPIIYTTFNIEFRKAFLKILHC
Sequence of Dopamine receptor D2 (P14416 whole entry, species assumed): as the sequence (P14416 whole entry) above

`COc1cc2c(cc1OC)C(=O)N(CCCCN1CCN(c3ccccc3OC)CC1)C2` [Compound 3]: the “radioligand percentage inhibition D2” value in assay [1] worked out at 96%. The D4 functional mode result in assay [2] was “agonist”. Further, in assay [3], the D2 functional mode result was “inverse agonist”.

Consider `c1cncc(OC[C@@H]2CN(CCN3CCc4ccccc43)CCO2)c1` [Compound 21s], for which the inhibition constant Ki (commonly a dissociation constant, usually derived from enzyme kinetics or from competition with a known ligand) in assay [4] is below 1000 nM.

For the compound `COc1cc2c(cc1OC)C(=O)C(CC1CCN(Cc3ccccc3)CC1)C2` (stereo not drawn) [Donepezil (Cpd 1), Donepezil, reference compound], in assay [1], the “radioligand percentage inhibition D2” value came to 19%. For the same compound, the D4 functional mode entry in assay [2] was “inverse agonist”.
